According to patent US20240166652A1, “MODULATORS OF THE INTEGRATED STRESS PATHWAY” (Calico Life Sciences LLC, priority 2017, published 2024):

System: ATF4 luciferase reporter in HEK293T cells
Assay: ATF4-Luc assay (ATF4 luciferase reporter, tunicamycin-treated HEK293T cells)
Assay type: cell-based, human
Settings: Homo sapiens, HEK-293T; HEK293T cells carrying the ATF4 luciferase reporter, 1 μg/mL tunicamycin, 7 hours

Structure (SMILES) | EC50
O=C(COc1ccccc1)NC12CCC(NC(=O)COc3ccc(Cl)c(F)c3)(CC1)[C@@H](O)C2 [Compound 840, 2-(4-chloro-3-fluorophenoxy)-N-[(2S)-2-hydroxy-4-(2-phenoxyacetamido)bicyclo[2.2.2]octan-1-yl]acetamide] | < 0.01 µM
O=C(COc1ccc(F)cc1)NC12CCC(NC(=O)COc3ccc(C(F)(F)F)c(F)c3)(CC1)[C@@H](O)C2 [Compound 835, 2-(4-fluorophenoxy)-N-[(3S)-4-{2-[3-fluoro-4-(trifluoromethyl)phenoxy]acetamido}-3-hydroxybicyclo[2.2.2]octan-1-yl]acetamide] | < 0.01 µM
N[C@H](CC(=O)NC12CC(NC(=O)COc3ccc(Cl)c(F)c3)(C1)C2)Cc1ccccc1 [Compound 810, (3S)-3-amino-N-{3-[2-(4-chloro-3-fluorophenoxy)acetamido]bicyclo[1.1.1]pentan-1-yl}-4-phenylbutanamide] | > 2 µM
Cc1ccc(OCC(=O)NC23CCC(NC(=O)COc4ccc(OC(F)(F)F)cc4)(CC2)[C@@H](O)C3)cc1F [Compound 736, 2-(3-fluoro-4-methylphenoxy)-N-[(3S)-3-hydroxy-4-{2-[4-(trifluoromethoxy)phenoxy]acetamido}bicyclo[2.2.2]octan-1-yl]acetamide] | < 0.01 µM
O=C(COc1ccc(Cl)c(F)c1)NC12CCC(NC(=O)Cc3ccc4c(c3)OCO4)(CC1)C(O)C2 (centres unmarked) [Compound 323, 2-(2H-1,3-benzodioxol-5-yl)-N-{4-[2-(4-chloro-3-fluorophenoxy)acetamido]-2-hydroxybicyclo[2.2.2]octan-1-yl}acetamide] | > 2 µM
O=C(CCOCc1cccc(Cl)c1)NC12CC(NC(=O)COc3ccc(Cl)c(F)c3)(C1)C2 [Compound 163, N-{3-[2-(4-chloro-3-fluorophenoxy)acetamido]bicyclo[1.1.1]pentan-1-yl}-3-[(3-chlorophenyl)methoxy]propanamide] | 0.25 to 0.5 µM
CC(C)(O)c1ccc(OCC(=O)NC23CC(NC(=O)COc4ccc(Cl)c(F)c4)(C2)C3)cc1 [Compound 407, 2-(4-chloro-3-fluorophenoxy)-N-(3-{2-[4-(2-hydroxypropan-2-yl)phenoxy]acetamido}bicyclo[1.1.1]pentan-1-yl)acetamide] | 0.05 to 0.25 µM
O=C(COc1ccc(Cl)c(F)c1)NC12CC(NC(=O)COc3cnc(C(F)F)cn3)(C1)C2 [Compound 384, 2-(4-chloro-3-fluorophenoxy)-N-[3-(2-{[5-(difluoromethyl)pyrazin-2-yl]oxy}acetamido)bicyclo[1.1.1]pentan-1-yl]acetamide] | > 2 µM
Cc1ccc(COCC(=O)NC23CC(NC(=O)COc4ccc(Cl)c(F)c4)(C2)C3)cc1 [Compound 144, 2-(4-chloro-3-fluorophenoxy)-N-(3-{2-[(4-methylphenyl)methoxy]acetamido}-bicyclo[1.1.1]pentan-1-yl)acetamide] | 0.25 to 0.5 µM
O=C(COc1ccc(Cl)c(F)c1)NC12CC(NC(=O)COc3ccc(Cl)cn3)(C1)C2 [Compound 213, 2-(4-chloro-3-fluorophenoxy)-N-(3-{2-[(5-chloropyridin-2-yl)oxy]acetamido}bicyclo[1.1.1]pentan-1-yl)acetamide] | 0.05 to 0.25 µM
O=C(COc1ccc(Cl)c(F)c1)NC12CCC(NC(=O)NCc3ccc(Cl)c(F)c3)(CC1)C[C@@H]2O [Compound 576, 2-(4-chloro-3-fluorophenoxy)-N-[(2S)-4-({[(4-chloro-3-fluorophenyl)methyl]carbamoyl}amino)-2-hydroxybicyclo[2.2.2]octan-1-yl]acetamide] | 0.01 to 0.05 µM
O=C(COc1cccc(C(F)(F)F)c1)NC12CCC(NC(=O)COc3ccc(Cl)c(F)c3)(CC1)[C@@H](O)C2 [Compound 466, 2-(4-chloro-3-fluorophenoxy)-N-[(2S)-2-hydroxy-4-{2-[3-(trifluoromethyl)phenoxy]acetamido}bicyclo[2.2.2]octan-1-yl]acetamide] | < 0.01 µM
O=C(COc1ccc(Cl)c(F)c1)NC12CC(NC(=O)COc3cc(F)c(F)cc3F)(C1)C2 [Compound 414, 2-(4-chloro-3-fluorophenoxy)-N-{3-[2-(2,4,5-trifluorophenoxy)acetamido]bicyclo[1.1.1]pentan-1-yl}acetamide] | < 0.01 µM
O=C(Cc1ccc(OC(F)(F)F)cc1)NC12CCC(NC(=O)COc3ccc(Cl)c(F)c3)(CC1)C(O)C2 (centres unmarked) [Compound 340, 2-(4-chloro-3-fluorophenoxy)-N-(2-hydroxy-4-{2-[4-(trifluoromethoxy)phenyl]acetamido}bicyclo[2.2.2]octan-1-yl)acetamide] | 0.05 to 0.25 µM
O=C(COc1ccc(F)c(F)c1)NC12CCC(NC(=O)COc3ccc(Cl)c(F)c3)(CC1)C(O)C2 (centres unmarked) [Compound 329, 2-(4-chloro-3-fluorophenoxy)-N-{4-[2-(3,4-difluorophenoxy)acetamido]-2-hydroxybicyclo[2.2.2]octan-1-yl}acetamide] | < 0.01 µM
O=C(COc1cc(F)c2cn[nH]c2c1)NC12CCC(NC(=O)COc3cc(F)c4cn[nH]c4c3)(CC1)[C@@H](O)C2 [Compound 710, N,N′-[(2S)-2-hydroxybicyclo[2.2.2]octane-1,4-diyl]bis{2-[(4-fluoro-1H-indazol-6-yl)oxy]acetamide}] | < 0.01 µM
COc1ncc(OCC(=O)NC23CCC(NC(=O)COc4ccc(Cl)cc4)(CC2)[C@@H](O)C3)cn1 [Compound 635, 2-(4-chlorophenoxy)-N-[(2S)-2-hydroxy-4-{2-[(2-methoxypyrimidin-5-yl)oxy]acetamido}bicyclo[2.2.2]octan-1-yl]acetamide] | 0.01 to 0.05 µM
O=C(COc1ccc2c(c1)OC(F)(F)O2)NC12CCC(NC(=O)COc3ccc4c(c3)OC(F)(F)O4)(CC1)C2 [Compound 531, N,N′-(bicyclo[2.2.1]heptane-1,4-diyl)bis{2-[(2,2-difluoro-2H-1,3-benzodioxol-5-yl)oxy]acetamide}] | 0.25 to 0.5 µM
Cc1cccc(COCC(=O)NC23CC(NC(=O)COc4ccc(Cl)c(F)c4)(C2)C3)c1 [Compound 140, 2-(4-chloro-3-fluorophenoxy)-N-(3-{2-[(3-methylphenyl)methoxy]acetamido}-bicyclo[1.1.1]pentan-1-yl)acetamide] | 0.05 to 0.25 µM
O=C(COc1ccc(Cl)c(F)c1)NC12CCC(NC(=O)COc3ccc(F)c(C(F)(F)F)c3)(CC1)[C@@H](O)C2 [Compound 828, 2-(4-chloro-3-fluorophenoxy)-N-[(3S)-4-{2-[4-fluoro-3-(trifluoromethyl)phenoxy]acetamido}-3-hydroxybicyclo[2.2.2]octan-1-yl]acetamide] | < 0.01 µM
CCc1cc(C)cc(OCC(=O)NC23CCC(NC(=O)COc4ccc(Cl)c(F)c4)(CC2)C[C@@H]3O)c1 [Compound 494, 2-(4-chloro-3-fluorophenoxy)-N-{(3S)-4-[2-(3-ethyl-5-methylphenoxy)acetamido]-3-hydroxybicyclo[2.2.2]octan-1-yl}acetamide] | 0.25 to 0.5 µM
O=C(COc1ccc(F)cc1)NC12CC(NC(=O)COc3ccc(Cl)cc3)(C1)C2 [Compound 120, 2-(4-chlorophenoxy)-N-{3-[2-(4-fluorophenoxy)acetamido]bicyclo-[1.1.1]pentan-1-yl}acetamide] | 0.01 to 0.05 µM
N#Cc1ccc(COCC(=O)NC23CC(NC(=O)COc4ccc(Cl)c(F)c4)(C2)C3)cc1 [Compound 139, 2-(4-chloro-3-fluorophenoxy)-N-(3-{2-[(4-cyanophenyl)methoxy]acetamido}-bicyclo[1.1.1]pentan-1-yl)acetamide] | 0.25 to 0.5 µM
